In brackets after ≈: the same amount, converted by molar mass. Where two headings read alike, the source gives them in different places.
Experiments:
[1] = system: pqsA promoter (PA14 PpqsA-GFPASV); test: pqsA-GFP reporter expression; assay type: cell-based, Pseudomonas aeruginosa; details: Pseudomonas aeruginosa; for activity at 50 µM: PA14, read-out: % Production pqsA-GFP; for IC50: PA14, read-out: IC50 pqsA-GFP expression, PA14, 13 concentrations
[2] = system: PA14 AT/P cells; test: AT/P cells formation assay in PA14; assay type: cell-based, Pseudomonas aeruginosa; details: for inhibition at 10 µM: Pseudomonas aeruginosa, PA14, 24 h, read-out: inhibition of AT/P cells formation
[3] = system: mvfR mutant constitutively expressing the pqsABCDE operon; assay type: cell-based; details: Pseudomonas aeruginosa, control about 100, single replicates (Figure 4a)
[4] = molecular target: T1, MvfR protein (MvfRC87) (Pseudomonas aeruginosa, UniProt Q9I4X0); assay type: binding; details: SPR
T1 construct: The MvfRC87 protein purified as in Xiao et. al., 2006; made in house
How it was run: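 MvfRC87 amine-coupled to a CM7 chip (3000–5000 RU) and binding measured by SPR. Double-reference-corrected responses 5 s before end of association plotted against concentration, for inhibitor alone and with native ligand PQS, compared with responses calculated for different binding sites.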

[5] = Solubility in iPBS pH 7.4 by HPLC; assay type: physicochemical; details: isotonic phosphate buffer (iPBS), aqueous with cosolvent or surfactant or cyclodextrin, kinetic from dmso stock; iPBS pH 7.4, HPLC; read-out: Solubility (M) in PBS
How it was run: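 Compounds from 10 mM DMSO stock shaken 4 h at room temperature in iPBS pH 7.4 (10 mM PBS, 2.7 mM KCl, 140 mM NaCl, 0.05% Tween), then filtered. Concentration measured by HPLC-UV against a known standard solution; solubility given as ratio of compound in test solution to standard.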

[6] = system: pyocyanin production in PA14; test: Pyocyanin production assay; details: Pseudomonas aeruginosa; for activity at 50 µM: PA14, 18 h, read-out: % Production Pyocyanin; for IC50: PA14, read-out: IC50 pyocyanin production
[7] = system: 16 MDR P. aeruginosa clinical isolates; test: Pyocyanin production in MDR clinical isolates; details: Pseudomonas aeruginosa, 18 h, Control about 100, replicates
[8] = system: ΔmvfR biofilm; test: Biofilm formation of ΔmvfR mutant (off-target); details: Pseudomonas aeruginosa, PA14, 24 h, read-out: Biofilm formation, ΔmvfR + compound; PA14 about 100; single replicates (Figure 4c)
[9] = system: PA14 isogenic mutant ΔmvfR AT/P cells; test: AT/P cell formation in ΔmvfR mutant (off-target); details: Pseudomonas aeruginosa, PA14, 24 h, read-out: AT/P cell formation, ΔmvfR + compound; PA14 about 100; single replicates (Figure 4b)
[10] = system: MvfR-regulated small molecules in PA14; test: Production of HAQs, 2-AA, DHQ and AA in PA14 cultures (LC-MS); details: Pseudomonas aeruginosa
Protocol: The HAQs HHQ, PQS, HQNO, and non-HAQs: 2-AA and DHQ produced by PA14 cells were quantified in the presence of NAMs. The overnight grown starter culture was diluted 1:100 in 5 mL LB media in a glass tube and was allowed to grow in the presence (50 µM) or absence of compound at 37 °C and 200 rpm in an incubator shaker until OD600 was 3. Bacterial cultures were subsequently mixed 1:1 (400 μL: 400 μL) with 100% methanol containing 20 ppm (20 μg mL^−1) of tetradeutero-PQS (PQS-D4) and 10 ppm of tetradeutero-HHQ (HHQ-D4) in a 1.5 mL Eppendorf tube. The mixture was vortexed for 5 seconds and spun down for 5 minutes at 12,000 x g. A 700 μL aliquot of the supernatant was removed and stored in glass vials at −20 °C until further liquid chromatography-mass spectrophotometry (LC/MS) analysis as previously described in Lepine et al., 2003[66]. LC/MC analysis was performed using a Micromass Quattro II triple quadrupole mass spectrometer (Micromass Canada, Pointe-Claire, Canada) in positive electrospray ionization mode, interfaced to an HP1100 HPLC equipped with a 4.5 × 150 mm reverse-phase C8 column.
GraphPad Prism 9.2.0 software was used to plot the IC50 curve against the percent inhibition of these small molecules’ production at each concentration.

[11] = read-out: HQNO, ΔmvfR-pqsABCD strain
[12] = read-out: Pyocyanin production relative to Control, clinical isolate LGR-4325
[13] = read-out: Pyocyanin production relative to Control, clinical isolate LGR-4326
[14] = read-out: Pyocyanin production relative to Control, clinical isolate LGR-4327
[15] = read-out: Pyocyanin production relative to Control, clinical isolate LGR-4328
[16] = read-out: Pyocyanin production relative to Control, clinical isolate LGR-4330
[17] = read-out: Pyocyanin production relative to Control, clinical isolate LGR-4331 (first section, r117)
[18] = read-out: Pyocyanin production relative to Control, clinical isolate LGR-4331 (second section, r140)
[19] = read-out: Pyocyanin production relative to Control, clinical isolate LGR-4333
[20] = read-out: Pyocyanin production relative to Control, clinical isolate LGR-4343
[21] = read-out: Pyocyanin production relative to Control, clinical isolate LGR-4344
[22] = read-out: Pyocyanin production relative to Control, clinical isolate LGR-4348
[23] = read-out: Pyocyanin production relative to Control, clinical isolate LGR-4356
[24] = read-out: Pyocyanin production relative to Control, clinical isolate LGR-4362
[25] = read-out: Pyocyanin production relative to Control, clinical isolate LGR-4363
[26] = read-out: Pyocyanin production relative to Control, clinical isolate LGR-4364 (first section, r326)
[27] = read-out: Pyocyanin production relative to Control, clinical isolate LGR-4364 (second section, r349)
[28] = PA14, read-out: % Production 2-AA
[29] = PA14, read-out: % Production AA
[30] = PA14, read-out: % Production DHQ
[31] = PA14, read-out: % Production HHQ
[32] = PA14, read-out: % Production HQNO
[33] = PA14, read-out: % Production PQS
[34] = PA14, read-out: HHQ production inhibition
[35] = PA14, read-out: HQNO production inhibition
[36] = PA14, read-out: PQS production inhibition
[37] = PA14, read-out: inhibition of 2-AA production
[38] = PA14, read-out: inhibition of DHQ production

T1 sequence (Q9I4X0 87-332): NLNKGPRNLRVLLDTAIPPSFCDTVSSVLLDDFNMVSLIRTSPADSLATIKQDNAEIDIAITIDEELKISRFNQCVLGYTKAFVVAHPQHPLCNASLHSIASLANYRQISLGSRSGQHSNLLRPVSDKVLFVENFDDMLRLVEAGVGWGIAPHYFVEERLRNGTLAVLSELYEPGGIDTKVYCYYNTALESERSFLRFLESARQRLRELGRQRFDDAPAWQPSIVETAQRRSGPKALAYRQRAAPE

## N#Cc1ccc(NC(=O)CC(=O)Nc2ccc(Cl)cc2)cc1 [D41]
[1]
  activity at 50 µM: 8%
  IC50: 1.09 µM
[2]
  inhibition at 10 µM: ≥ 76%
[3]; [11]
  activity at 50 µM: 81.9%
[4]; Concentration 1.00E-05 M
  Response Unit (RU): 28.8 RU
[4]; Concentration 1.00E-06 M
  Response Unit (RU): 22.7 RU
[4]; Concentration 1.00E-07 M
  Response Unit (RU): 10.6 RU
[4]; Concentration 1.00E-08 M
  Response Unit (RU): 2.6 RU
[4]; Concentration 3.16E-06 M
  Response Unit (RU): 26.5 RU
[4]; Concentration 3.16E-07 M
  Response Unit (RU): 16.9 RU
[4]; Concentration 3.16E-08 M
  Response Unit (RU): 5.4 RU
[5]
  solubility at 4 h: 1.3e-05 M (≈ 4.08 µg/mL)
[6]
  activity at 50 µM: 6%
  IC50: 1.8 µM
[7]; [12]
  activity at 10 µM: 15.5%
[7]; [13]
  activity at 10 µM: 14.8%
[7]; [14]
  activity at 10 µM: 34.4%
[7]; [15]
  activity at 10 µM: 11.9%
[7]; [16]
  activity at 10 µM: 13.4%
[7]; [17]
  activity at 10 µM: 17.4%
[7]; [18]
  activity at 10 µM: 10.7%
[7]; [19]
  activity at 10 µM: 18.8%
[7]; [20]
  activity at 10 µM: 17.4%
[7]; [21]
  activity at 10 µM: 21.8%
[7]; [22]
  activity at 10 µM: 17.7%
[7]; [23]
  activity at 10 µM: 18.8%
[7]; [24]
  activity at 10 µM: 35.7%
[7]; [25]
  activity at 10 µM: 23.4%
[7]; [26]
  activity at 10 µM: 19.1%
[7]; [27]
  activity at 10 µM: 22%
[8]
  activity at 10 µM: 25.4%
[9]
  activity at 10 µM: 43.4%
[10]; [28]
  activity at 50 µM: 6%
[10]; [29]
  activity at 50 µM: 739%
[10]; [30]
  activity at 50 µM: 11%
[10]; [31]
  activity at 50 µM: 2%
[10]; [32]
  activity at 50 µM: 15%
[10]; [33]
  activity at 50 µM: 9%
[10]; [34]
  inhibition at 50 µM: 89 to 99%
[10]; [35]
  inhibition at 50 µM: 40 to 92%
[10]; [36]
  inhibition at 50 µM: 76 to 97%
[10]; [37]
  inhibition at 50 µM: 82 to 95%
[10]; [38]
  inhibition at 50 µM: 82 to 96%

## N#Cc1ccc(NC(=O)CC(=O)Nc2ccc(C#N)cc2)cc1 [D43]
[1]
  activity at 50 µM: 8%
  IC50: 0.97 µM
[2]; PA14, 10 μg mL^−1 meropenem, 10 µM compound, 24 h, control PA14 + vehicle
  AT/P cells formation, percentage of control (single replicates): 39.10%
[2]
  inhibition at 10 µM: ≥ 51%
[3]; read-out: DHQ, ΔmvfR-pqsABCD strain
  activity at 50 µM: 103%
[3]; [11]
  activity at 50 µM: 91.3%
[3]; read-out: PQS, ΔmvfR-pqsABCD strain
  activity at 50 µM: 99.4%
[4]; Concentration 1.00E-05 M
  Response Unit (RU): 29.2 RU
[4]; Concentration 1.00E-06 M
  Response Unit (RU): 22.5 RU
[4]; Concentration 1.00E-07 M
  Response Unit (RU): 9.9 RU
[4]; Concentration 1.00E-08 M
  Response Unit (RU): 2.7 RU
[4]; Concentration 3.16E-06 M
  Response Unit (RU): 26.7 RU
[4]; Concentration 3.16E-07 M
  Response Unit (RU): 16.5 RU
[4]; Concentration 3.16E-08 M
  Response Unit (RU): 5 RU
[5]
  solubility at 4 h: 1.1e-05 M (≈ 3.35 µg/mL)
[6]
  activity at 50 µM: 8%
  IC50: 1.38 µM
[7]; [12]
  activity at 10 µM: 14.5%
[7]; [13]
  activity at 10 µM: 9.84%
[7]; [14]
  activity at 10 µM: 26.2%
[7]; [15]
  activity at 10 µM: 9.98%
[7]; [16]
  activity at 10 µM: 15%
[7]; [17]
  activity at 10 µM: 16.3%
[7]; [18]
  activity at 10 µM: 11.8%
[7]; [19]
  activity at 10 µM: 15.2%
[7]; [20]
  activity at 10 µM: 24.3%
[7]; [21]
  activity at 10 µM: 25.8%
[7]; [22]
  activity at 10 µM: 12.6%
[7]; [23]
  activity at 10 µM: 20.8%
[7]; [24]
  activity at 10 µM: 23.7%
[7]; [25]
  activity at 10 µM: 13.4%
[7]; [26]
  activity at 10 µM: 21.7%
[7]; [27]
  activity at 10 µM: 19.3%
[8]
  activity at 10 µM: 41.4%
[9]
  activity at 10 µM: 30.1%
[10]; [28]
  activity at 50 µM: 19%
[10]; [29]
  activity at 50 µM: 531%
[10]; [30]
  activity at 50 µM: 34%
[10]; [31]
  activity at 50 µM: 22%
[10]; [32]
  activity at 50 µM: 39%
[10]; [33]
  activity at 50 µM: 24%
[10]; [34]
  inhibition at 50 µM: 89 to 99%
[10]; [35]
  inhibition at 50 µM: 40 to 92%
[10]; [36]
  inhibition at 50 µM: 76 to 97%
[10]; [37]
  inhibition at 50 µM: 82 to 95%
[10]; [38]
  inhibition at 50 µM: 82 to 96%

Source: publication PMC9428149, “Tackling recalcitrant Pseudomonas aeruginosa infections in critical illness via anti-virulence monotherapy” (Nature Communications, 2022)
